Experimental data reported in ChEMBL document CHEMBL1201862, “PubChem BioAssay data set” (2004).
Activity calls are given as the source filed them.

Columns and labels:
Vero = test: cells; assay type: functional; conditions: Chlorocebus sabaeus
[1] = molecular target: T1, DNA repair and recombination protein RAD54-like (Homo sapiens, UniProt Q92698); test: inhibitors of human RAD54 branch migration, confirmation, biochemical, fluorescence, cherry-picked samples, dose series (AID 651657); assay type: functional
T1 sequence (Q92698 whole entry): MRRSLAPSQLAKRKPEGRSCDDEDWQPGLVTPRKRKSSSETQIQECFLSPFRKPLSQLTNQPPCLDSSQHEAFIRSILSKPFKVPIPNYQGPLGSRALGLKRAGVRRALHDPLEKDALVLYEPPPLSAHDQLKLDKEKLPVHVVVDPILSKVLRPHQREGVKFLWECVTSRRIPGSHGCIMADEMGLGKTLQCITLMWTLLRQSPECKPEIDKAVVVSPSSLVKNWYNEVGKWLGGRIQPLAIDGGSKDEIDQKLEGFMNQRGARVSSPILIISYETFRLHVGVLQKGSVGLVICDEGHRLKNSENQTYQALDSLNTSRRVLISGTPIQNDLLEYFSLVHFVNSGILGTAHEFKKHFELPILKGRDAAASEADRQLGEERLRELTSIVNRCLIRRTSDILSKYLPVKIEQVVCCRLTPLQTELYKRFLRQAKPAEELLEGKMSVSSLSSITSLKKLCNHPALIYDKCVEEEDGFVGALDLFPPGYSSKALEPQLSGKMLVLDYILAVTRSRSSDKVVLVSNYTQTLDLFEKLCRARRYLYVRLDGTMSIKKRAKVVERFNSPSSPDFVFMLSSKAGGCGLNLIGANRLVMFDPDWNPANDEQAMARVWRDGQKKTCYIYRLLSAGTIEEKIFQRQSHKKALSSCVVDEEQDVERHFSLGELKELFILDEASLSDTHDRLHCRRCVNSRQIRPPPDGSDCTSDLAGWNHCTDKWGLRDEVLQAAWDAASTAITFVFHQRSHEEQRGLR

[2] = molecular target: Beta-2 adrenergic receptor (Homo sapiens, UniProt P07550); test: beta2AR agonists driving receptor internalization, dose response, cell-based, FAP fluorogen, flow cytometry, cherry pick 1 (AID 588763); assay type: functional
[3] = molecular target: T2, DNA repair protein RAD52 homolog (Homo sapiens, UniProt P43351); assay type: functional, biochemical
T2 sequence (P43351 whole entry): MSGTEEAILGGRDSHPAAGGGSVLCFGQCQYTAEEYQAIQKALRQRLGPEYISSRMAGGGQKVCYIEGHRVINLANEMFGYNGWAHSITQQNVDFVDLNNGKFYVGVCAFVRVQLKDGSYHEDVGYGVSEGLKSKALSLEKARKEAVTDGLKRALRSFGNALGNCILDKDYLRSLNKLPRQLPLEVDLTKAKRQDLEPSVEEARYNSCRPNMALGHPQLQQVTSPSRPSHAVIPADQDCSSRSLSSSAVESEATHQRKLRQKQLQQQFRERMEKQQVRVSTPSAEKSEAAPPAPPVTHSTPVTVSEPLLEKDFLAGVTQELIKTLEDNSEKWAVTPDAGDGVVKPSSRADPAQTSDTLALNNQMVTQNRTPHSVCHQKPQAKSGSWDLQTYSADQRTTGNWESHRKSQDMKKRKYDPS

[4] = MDA-MB-231 cell growth inhibition, dose response, cytotoxicity control for RAD54 inhibitor project, CellTiter-Glo luminescence, cherry-pick (AID 651692); assay type: functional, cell-based
Protein skinhead-1 = molecular target: T3, Protein skinhead-1 (Caenorhabditis elegans, UniProt P34707); assay type: functional
T3 sequence (P34707 whole entry): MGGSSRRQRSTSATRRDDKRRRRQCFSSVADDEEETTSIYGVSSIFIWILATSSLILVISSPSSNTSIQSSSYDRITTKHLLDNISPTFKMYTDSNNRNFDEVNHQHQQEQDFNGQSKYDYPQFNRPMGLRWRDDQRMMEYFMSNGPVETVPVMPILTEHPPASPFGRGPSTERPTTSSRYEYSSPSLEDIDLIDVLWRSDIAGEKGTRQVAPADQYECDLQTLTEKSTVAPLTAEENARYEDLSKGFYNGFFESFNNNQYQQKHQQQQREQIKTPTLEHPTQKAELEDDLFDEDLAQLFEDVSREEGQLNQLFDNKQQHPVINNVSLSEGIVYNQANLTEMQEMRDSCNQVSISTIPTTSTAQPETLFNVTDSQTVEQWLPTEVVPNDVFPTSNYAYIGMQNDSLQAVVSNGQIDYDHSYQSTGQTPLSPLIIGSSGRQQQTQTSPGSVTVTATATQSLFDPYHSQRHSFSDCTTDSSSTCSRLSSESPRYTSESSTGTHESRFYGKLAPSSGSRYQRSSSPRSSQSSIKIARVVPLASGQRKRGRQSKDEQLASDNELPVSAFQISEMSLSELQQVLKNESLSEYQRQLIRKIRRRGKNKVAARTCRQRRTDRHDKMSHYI

[5] = molecular target: T4, Sentrin-specific protease 8 (Homo sapiens, UniProt Q96LD8); assay type: functional
T4 sequence (Q96LD8 whole entry): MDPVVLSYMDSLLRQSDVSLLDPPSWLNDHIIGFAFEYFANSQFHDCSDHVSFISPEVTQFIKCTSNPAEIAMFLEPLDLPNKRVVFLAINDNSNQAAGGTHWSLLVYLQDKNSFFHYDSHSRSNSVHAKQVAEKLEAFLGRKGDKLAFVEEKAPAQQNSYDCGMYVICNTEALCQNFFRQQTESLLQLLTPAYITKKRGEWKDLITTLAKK

Large T antigen = Large T antigen (Simian virus 40, UniProt P03070); assay type: functional, Betapolyomavirus macacae;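 note: Confirmatory-stage PubChem screen for compounds that inhibit SV40 T antigen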
[6] = molecular target: T5, Replicative DNA helicase DnaB (Mycobacterium tuberculosis, UniProt P9WMR3); test: DnaB intein splicing inhibitors, dose response, biochemical, cell-free fluorescence (AID 449749); assay type: functional
T5 sequence (P9WMR3 whole entry): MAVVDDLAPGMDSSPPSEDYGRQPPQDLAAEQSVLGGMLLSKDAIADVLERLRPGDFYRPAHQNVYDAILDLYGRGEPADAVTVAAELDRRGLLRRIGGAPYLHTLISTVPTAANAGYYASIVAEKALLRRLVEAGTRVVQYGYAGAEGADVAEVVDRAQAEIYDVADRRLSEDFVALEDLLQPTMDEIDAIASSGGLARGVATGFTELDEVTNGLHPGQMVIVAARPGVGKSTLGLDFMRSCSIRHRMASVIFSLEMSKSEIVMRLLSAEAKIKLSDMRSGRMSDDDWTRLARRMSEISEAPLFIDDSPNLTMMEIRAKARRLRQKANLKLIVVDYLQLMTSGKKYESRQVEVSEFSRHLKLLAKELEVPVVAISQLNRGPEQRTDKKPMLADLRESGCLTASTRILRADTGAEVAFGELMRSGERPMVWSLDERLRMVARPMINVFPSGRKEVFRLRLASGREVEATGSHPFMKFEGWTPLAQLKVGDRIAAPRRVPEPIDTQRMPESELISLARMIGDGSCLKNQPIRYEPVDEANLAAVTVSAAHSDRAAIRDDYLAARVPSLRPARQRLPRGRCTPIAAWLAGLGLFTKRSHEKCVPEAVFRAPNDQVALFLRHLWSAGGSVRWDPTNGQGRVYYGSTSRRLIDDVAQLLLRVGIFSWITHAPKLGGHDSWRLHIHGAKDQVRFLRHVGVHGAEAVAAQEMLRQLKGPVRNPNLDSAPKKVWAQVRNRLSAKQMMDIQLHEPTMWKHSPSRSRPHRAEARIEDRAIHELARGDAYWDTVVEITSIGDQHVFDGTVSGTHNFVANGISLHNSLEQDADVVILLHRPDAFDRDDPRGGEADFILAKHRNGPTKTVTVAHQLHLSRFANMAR

Protein RecA = molecular target: T6, Protein RecA (Mycobacterium tuberculosis, UniProt P9WHJ3); test: Fluorescence Cell-Free Homogeneous Dose Retest to Identify Inhibitors of RecA-Intein Splicing Activity. [Related pubchem assays (depositor defined):AID2097, AID2223, AID489010, AID492950]; assay type: functional
T6 sequence (P9WHJ3 whole entry): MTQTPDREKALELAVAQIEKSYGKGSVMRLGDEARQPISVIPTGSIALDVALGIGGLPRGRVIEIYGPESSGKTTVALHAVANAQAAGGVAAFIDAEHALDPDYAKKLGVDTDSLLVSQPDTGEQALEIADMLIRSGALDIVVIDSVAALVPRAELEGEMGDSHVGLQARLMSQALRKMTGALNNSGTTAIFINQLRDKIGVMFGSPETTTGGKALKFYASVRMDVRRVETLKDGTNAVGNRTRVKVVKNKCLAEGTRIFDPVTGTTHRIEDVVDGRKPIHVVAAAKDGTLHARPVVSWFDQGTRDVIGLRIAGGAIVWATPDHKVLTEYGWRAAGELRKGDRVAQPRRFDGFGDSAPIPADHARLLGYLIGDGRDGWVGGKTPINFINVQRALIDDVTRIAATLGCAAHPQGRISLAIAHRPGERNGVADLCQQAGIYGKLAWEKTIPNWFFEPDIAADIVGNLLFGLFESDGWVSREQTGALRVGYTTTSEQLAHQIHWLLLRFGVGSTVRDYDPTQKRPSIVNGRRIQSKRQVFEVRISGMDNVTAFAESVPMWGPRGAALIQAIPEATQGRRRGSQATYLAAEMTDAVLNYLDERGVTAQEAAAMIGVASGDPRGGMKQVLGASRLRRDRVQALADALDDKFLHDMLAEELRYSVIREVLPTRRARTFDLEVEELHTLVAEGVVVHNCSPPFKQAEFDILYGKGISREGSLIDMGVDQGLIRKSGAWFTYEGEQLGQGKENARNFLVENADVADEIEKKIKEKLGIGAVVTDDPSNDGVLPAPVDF

[7] = molecular target: T7, RNA-binding protein pos-1 (Caenorhabditis elegans, UniProt G5EF15); test: inhibitors of POS-1/mex-3 RNA binding, dose response, biochemical, fluorescence polarization (AID 1964);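 note: purified POS-1 fused to maltose binding protein made in E. coli; potency of compounds blocking POS-1 binding to fluorescent RNA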
T7 sequence (G5EF15 whole entry): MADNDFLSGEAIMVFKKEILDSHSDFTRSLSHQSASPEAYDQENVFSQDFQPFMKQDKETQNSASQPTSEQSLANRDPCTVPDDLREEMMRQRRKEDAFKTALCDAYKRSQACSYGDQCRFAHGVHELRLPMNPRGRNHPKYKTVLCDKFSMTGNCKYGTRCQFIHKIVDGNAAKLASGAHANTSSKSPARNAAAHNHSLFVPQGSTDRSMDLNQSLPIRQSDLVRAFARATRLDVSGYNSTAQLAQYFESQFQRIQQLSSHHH

[8] = molecular target: T4, Sentrin-specific protease 8; assay type: functional; remark: listed apart in the source
[9] = molecular target: T8, Zinc finger protein mex-5 (Caenorhabditis elegans, UniProt Q9XUB2); test: MEX-5/TCR-2 RNA interaction inhibitors, dose response, biochemical, C. elegans, fluorescence polarization (AID 1960)
T8 sequence (Q9XUB2 whole entry): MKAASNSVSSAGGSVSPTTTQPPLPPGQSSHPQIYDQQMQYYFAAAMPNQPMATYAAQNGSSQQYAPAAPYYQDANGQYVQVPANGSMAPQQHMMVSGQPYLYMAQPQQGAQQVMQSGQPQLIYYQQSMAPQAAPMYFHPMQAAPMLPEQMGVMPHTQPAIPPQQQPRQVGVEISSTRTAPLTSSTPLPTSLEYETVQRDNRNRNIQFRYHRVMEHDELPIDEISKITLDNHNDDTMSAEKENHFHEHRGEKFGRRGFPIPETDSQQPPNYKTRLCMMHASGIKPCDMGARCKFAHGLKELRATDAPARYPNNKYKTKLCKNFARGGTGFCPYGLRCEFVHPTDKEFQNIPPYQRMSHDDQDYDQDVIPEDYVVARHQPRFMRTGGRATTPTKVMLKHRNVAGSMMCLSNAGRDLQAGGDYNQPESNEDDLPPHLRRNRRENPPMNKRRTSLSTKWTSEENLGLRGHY

Large T antigen, sequence (P03070 whole entry): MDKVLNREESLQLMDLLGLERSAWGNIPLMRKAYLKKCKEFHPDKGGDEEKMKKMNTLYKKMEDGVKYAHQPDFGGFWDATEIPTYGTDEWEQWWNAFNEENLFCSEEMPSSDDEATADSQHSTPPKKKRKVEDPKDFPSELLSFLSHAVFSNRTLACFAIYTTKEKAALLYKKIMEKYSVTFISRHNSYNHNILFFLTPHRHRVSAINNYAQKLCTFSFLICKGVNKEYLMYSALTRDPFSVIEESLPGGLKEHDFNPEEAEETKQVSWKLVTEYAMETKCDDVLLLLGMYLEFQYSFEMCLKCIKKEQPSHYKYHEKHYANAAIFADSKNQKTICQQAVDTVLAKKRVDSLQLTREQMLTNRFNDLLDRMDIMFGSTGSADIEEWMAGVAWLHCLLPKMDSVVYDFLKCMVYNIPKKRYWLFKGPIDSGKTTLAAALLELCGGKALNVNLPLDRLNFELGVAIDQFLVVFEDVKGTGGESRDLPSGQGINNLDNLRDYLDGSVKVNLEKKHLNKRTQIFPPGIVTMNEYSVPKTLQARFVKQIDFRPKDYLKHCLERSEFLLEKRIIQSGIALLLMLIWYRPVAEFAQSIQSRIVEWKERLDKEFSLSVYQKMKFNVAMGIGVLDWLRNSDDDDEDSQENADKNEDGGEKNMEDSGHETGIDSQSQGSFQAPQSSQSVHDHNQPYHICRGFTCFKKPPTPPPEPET
Beta-2 adrenergic receptor, sequence (P07550 whole entry): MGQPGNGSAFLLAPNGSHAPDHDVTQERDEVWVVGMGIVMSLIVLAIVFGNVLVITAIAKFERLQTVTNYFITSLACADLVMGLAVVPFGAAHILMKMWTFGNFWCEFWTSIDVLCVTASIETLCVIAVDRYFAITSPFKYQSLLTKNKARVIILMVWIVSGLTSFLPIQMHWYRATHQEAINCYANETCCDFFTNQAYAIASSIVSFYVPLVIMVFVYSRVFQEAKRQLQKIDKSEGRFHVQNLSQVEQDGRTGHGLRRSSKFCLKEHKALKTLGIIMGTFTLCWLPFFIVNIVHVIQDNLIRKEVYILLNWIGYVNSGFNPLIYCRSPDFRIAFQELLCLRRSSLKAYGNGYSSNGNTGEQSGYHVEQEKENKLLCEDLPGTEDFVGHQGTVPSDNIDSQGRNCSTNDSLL

CN(C)CCNc1ncnc2c1sc1nc(N3CCCC3)c3c(c12)CC(C)(C)OC3
CC50 (Vero): 17.8 µM (active) | AC50 [1]: 9.5 µM (active) | EC50 [2]: 4.02 µM (active) | AC50 [3]: 6.55 µM (active) | AC50 [4]: 34.7 µM (active) | IC50 (Protein skinhead-1): > 100 µM (inactive)

CCOc1cc(C(c2c(C)[nH][nH]c2=O)c2c(C)[nH][nH]c2=O)ccc1O
IC50 [5]: 16.2 µM (active) | IC50 (Large T antigen): > 100 µM (active) | AC50 [6]: 302 nM (active) | EC50 (Protein RecA): 240 nM (active) | EC50 [7]: 57.9 µM (active) | IC50 [8]: 21.4 µM (active) | EC50 [9]: 107 µM (active)
